This is an account of results in paper PMC2394487, “Improved radiotracing of oxytocin receptor-expressing tumours using the new [^111In]-DOTA-Lys^8-deamino-vasotocin analogue” (British Journal of Cancer, 2003).

“Also recorded” adds a separate entry of the source. Positions of bridges follow the written chain, without caps; N, C: chain ends. Non-standard residues stand in square brackets, D forms with d. Residues, ends and D or L forms follow the SMILES beside them. *: point of attachment. DOTA = O=C(O)CN1CCN(CC(=O)O)CCN(CC(=O)*)CCN(CC(=O)O)CC1; Mpa = O=C(O)CCS A value given as a limit tells only on which side of the number the result lay.

One assay concerns the target T1, human V1a receptor (Homo sapiens, UniProt P37288).
T1 construct: expressed in transfected cells; host or cells: COS7 (monkey kidney), transient electroporation
Briefly: Competition binding, [3H]-AVP displacement, membranes of transfected COS7 cells. Conditions: for Ki: displacement of [3H]-AVP, mean±s.e. of three experiments. Here is the method:
(§1) To determine the LVT, dLVT and DOTA-dLVT affinity constants in comparison with OT, heterologous competition experiments were performed on membranes prepared from monkey kidney COS7 cells transiently transfected by means of electroporation with human OTR, V1a, V2 and V1b cDNAs as previously described ([Chini et al, 1995a]). Briefly, the transfected cells were homogenised with a Dounce glass apparatus, washed twice, and resuspended in binding buffer (50 mM Tris HCl, 5 mM MgCl, pH 7.4). Between 5 and 10 μg of membrane proteins were incubated with a fixed concentration of [^3H]OT (1–2 nM) for 30 min at 30°C in the presence of increasing concentrations of unlabelled peptides. Nonspecific binding was determined in the presence of 1 μM OT. Bound and free radioactivity were separated by filtration over Whatman GF/C filters presoaked in 10 mg ml^−1 BSA. The binding isotherms were analysed using GraphPad Prism.
(§2) Figure 3 Binding of LVT-derived peptides to human OT/AVP receptor subtypes. (A) Comparison of OT and DOTA-dLVT affinity for the human OTR. Competition experiments were performed using membrane preparations of COS7 cells transiently transfected with the wild-type OTR. [^3H]-OT was used at a concentration of 1–2 nM, and nonspecific binding was determined in the presence of […] OT. Data are expressed as the percentage of bound [^3H]-OT in the absence of cold competitor. The curves are representative of three independent assays performed in triplicate. (B) [^111In]-DOTA-dLVT saturation binding assay. The affinity of [^111In]-DOTA-dLVT for the human OTR was measured by incubating increasing amounts of labelled peptide to membrane preparations of COS7 cells transiently transfected with the wild-type OTR. The curve is representative of two independent assays performed in triplicate. (C) Receptor selectivity profile of DOTA-dLVT. Competition experiments were performed using membrane preparations of COS7 cells transiently transfected with the wild-type human OTR, and V1a, V1b and V2 receptors. The membrane preparations of OTR-expressing cells were incubated in the presence of a constant amount of ^3[H]OT (1–2 nM), and nonspecific binding was determined in the presence of 100 μM OT. The membrane preparations of cells expressing V1a, V1b and V2 receptors were incubated in the presence of a constant amount of ^3[H]AVP (2–4 nM), and nonspecific binding was determined in the presence of 100 μM AVP. The data are expressed as percentages of bound [^3H]-ligand in the absence of cold competitor. Each curve is the mean of triplicate determinations of a single representative experiment.
Background: In a radioligand displacement assay an active substance lowers the binding of a labelled ligand.

The next assay deals with T2, human V1b receptor (Homo sapiens, UniProt P47901).
T2 construct: expressed in transfected cells; host or cells: COS7 (monkey kidney), transient electroporation
T2 sequence (P47901 1-424): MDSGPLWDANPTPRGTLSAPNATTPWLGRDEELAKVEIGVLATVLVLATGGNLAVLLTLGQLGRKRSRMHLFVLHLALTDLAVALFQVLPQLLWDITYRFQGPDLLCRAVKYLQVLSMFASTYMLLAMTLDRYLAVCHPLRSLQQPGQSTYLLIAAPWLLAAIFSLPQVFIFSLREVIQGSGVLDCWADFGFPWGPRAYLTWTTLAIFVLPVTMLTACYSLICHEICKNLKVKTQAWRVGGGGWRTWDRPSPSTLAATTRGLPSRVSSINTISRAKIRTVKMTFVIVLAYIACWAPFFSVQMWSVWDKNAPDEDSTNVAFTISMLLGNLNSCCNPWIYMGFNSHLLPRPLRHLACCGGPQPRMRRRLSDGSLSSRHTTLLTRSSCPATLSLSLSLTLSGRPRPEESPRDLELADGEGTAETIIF
Described as above. The conditions noted are these: for Ki: displacement of [3H]-AVP, mean±s.e. of three experiments. The protocol: as §1, §2

In a further assay the target is T3, human V2 receptor (Homo sapiens, UniProt P30518).
T3 construct: expressed in transfected cells; host or cells: COS7 (monkey kidney), transient electroporation
T3 sequence (P30518 whole entry): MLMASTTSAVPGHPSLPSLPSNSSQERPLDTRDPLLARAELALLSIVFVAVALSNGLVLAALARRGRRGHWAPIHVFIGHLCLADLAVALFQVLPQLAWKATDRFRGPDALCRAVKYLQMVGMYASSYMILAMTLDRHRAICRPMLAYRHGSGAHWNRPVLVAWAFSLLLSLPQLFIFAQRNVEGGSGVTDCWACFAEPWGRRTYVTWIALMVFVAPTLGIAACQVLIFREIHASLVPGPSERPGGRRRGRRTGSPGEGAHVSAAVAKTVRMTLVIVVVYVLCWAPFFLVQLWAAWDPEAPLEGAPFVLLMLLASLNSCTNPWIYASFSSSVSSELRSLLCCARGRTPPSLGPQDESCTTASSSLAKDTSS
The assay is described as above. Conditions: for Ki: displacement of [3H]-AVP, mean±s.e. of three experiments. Here is the method: as §1, §2

For another assay, the target named is T4, human OTR (Homo sapiens, UniProt P30559).
T4 construct: expressed in transfected cells; host or cells: COS7 (monkey kidney), transient electroporation
T4 sequence (P30559 1-389): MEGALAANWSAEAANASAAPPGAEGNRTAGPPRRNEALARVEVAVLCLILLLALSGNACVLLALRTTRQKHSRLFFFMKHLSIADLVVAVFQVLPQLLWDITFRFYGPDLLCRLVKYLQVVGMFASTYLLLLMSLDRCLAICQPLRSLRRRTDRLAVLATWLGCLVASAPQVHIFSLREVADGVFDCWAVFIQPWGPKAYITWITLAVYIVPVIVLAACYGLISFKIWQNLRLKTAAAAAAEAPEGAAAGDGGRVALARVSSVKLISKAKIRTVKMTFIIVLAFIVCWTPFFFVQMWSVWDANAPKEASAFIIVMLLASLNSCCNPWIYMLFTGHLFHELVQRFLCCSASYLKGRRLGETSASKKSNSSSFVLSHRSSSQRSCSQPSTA
As to the kind of experiment: Heterologous competition binding, [3H]-OT displacement, membranes of transfected COS7 cells. The conditions noted are these: for Ki: displacement of [3H]-OT, mean±s.e. of three experiments. Here is the method:
as §1
LVT, dLVT and DOTA-dLVT affinities for the human OTR were determined by means of heterologous competition experiments on membranes prepared from transiently transfected COS7 cells using [^3H]-OT as radioligand.
Figure 3 Binding of LVT-derived peptides to human OT/AVP receptor subtypes. (A) Comparison of OT and DOTA-dLVT affinity for the human OTR. […] [^3H]-OT was used at a concentration of 1–2 nM, and nonspecific binding was determined in the presence of […] OT. Data are expressed as the percentage of bound [^3H]-OT in the absence of cold competitor. […] The affinity of [^111In]-DOTA-dLVT for the human OTR was measured by incubating increasing amounts of labelled peptide to membrane preparations of COS7 cells transiently transfected with the wild-type OTR. […] The membrane preparations of OTR-expressing cells were incubated in the presence of a constant amount of ^3[H]OT (1–2 nM), and nonspecific binding was determined in the presence of 100 μM OT. The membrane preparations of cells expressing V1a, V1b and V2 receptors were incubated in the presence of a constant amount of ^3[H]AVP (2–4 nM), and nonspecific binding was determined in the presence of 100 μM AVP. […]

The target of the next assay is T5, human OTR fused to EGFP (Homo sapiens, UniProt P30559).
T5 construct: expressed in transfected cells; host or cells: HEK293, stably transfected
T5 sequence (P30559 1-389): T4 sequence (P30559 1-389)
Briefly: Peptide-induced receptor internalisation, confocal microscopy, HEK293 cells. Conditions: peptide 10^−6 M; for receptor internalisation (result in words): up to 60 min. In kind it is cell-based. Here is the method: HEK293 cells stably transfected with the human OTR fused to EGFP were grown in six-well dishes, washed twice in serum-free medium, and left to equilibrate for 30 min at 37°C. Peptides were then added at a final concentration of 10^−6 M. At fixed time intervals (5, 15, 30 and 60 min), the cells were washed twice with 10 mM sodium phosphate buffer, pH 7.4, containing 150 mM NaCl (LS buffer), fixed for 20 min at room temperature with 4% (w v^−1) paraformaldehyde, and mounted on glass slides with 90% (v v^−1) glycerol in PBS. The slides were observed under an MRC1024 BioRad confocal microscope.
To assess whether LVT, dLVT and DOTA-dLVT behave like OT to induce receptor internalisation, we applied them to HEK293 cells stably expressing a human OTR C-terminally tagged with the green fluorescent protein EGFP ([Guzzi et al, 2002]; [Rimoldi et al, 2003]).
Figure 4 Laser-scanning confocal microscopy analysis of peptide-induced receptor internalisation. Receptor internalisation was investigated in HEK293 cells stably transfected with the human OTR bearing the EGFP fused at its C-terminus. The cells were grown on coverslips and incubated in serum-free medium for 30 min (Bas), after which the peptides were added at a final concentration of 10^−6 M and the coverslips were fixed at 1, 5, 15, 30 and 60 min.

The test system of assay [1] is OTR-positive cells (MCF7, TS/A, MOG-U-V-W). As to the kind of experiment: Displacement of [111In]-DOTA-dLVT binding from intact tumour cells by cold peptides. It counts as cell-based. The conditions noted are these: 5 min preincubation with 100 μM and 1 mM nonradioactive peptide. Here is the method: Binding specificity was determined by evaluating radioactive displacement. Briefly, the cell suspension was incubated for 5 min in the presence of LVT, dLVT or OT 100 μM and 1 mM, or in the presence of unrelated peptides (somatostatin 100 nM and 1 μM, and hexarelin 1 μM) followed by 20 min of incubation with 1 μM [^111In]-DOTA-dLVT. The cells were then centrifuged and washed twice as described above. The activity of the two different agonists and the unrelated peptides in competing with the radioligand was evaluated by measuring cell-bound radioactivity. All of the experiments were performed in triplicate. The statistical analysis was carried out using ANOVA, with a significance cutoff point of 0.05.

T1 sequence (P37288 whole entry): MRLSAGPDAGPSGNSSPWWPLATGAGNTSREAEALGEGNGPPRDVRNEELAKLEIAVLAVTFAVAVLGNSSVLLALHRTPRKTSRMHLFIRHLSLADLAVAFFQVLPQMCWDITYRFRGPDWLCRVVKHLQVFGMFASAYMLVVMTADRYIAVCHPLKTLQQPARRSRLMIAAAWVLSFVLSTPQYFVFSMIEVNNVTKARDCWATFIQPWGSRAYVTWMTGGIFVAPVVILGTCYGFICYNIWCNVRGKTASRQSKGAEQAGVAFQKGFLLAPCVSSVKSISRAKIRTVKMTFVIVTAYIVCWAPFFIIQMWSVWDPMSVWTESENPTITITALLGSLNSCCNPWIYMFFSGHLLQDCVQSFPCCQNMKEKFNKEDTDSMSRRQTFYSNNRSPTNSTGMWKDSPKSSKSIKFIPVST

As for `CC[C@H](C)[C@@H]1NC(=O)[C@H](Cc2ccc(O)cc2)NC(=O)CCSSC[C@@H](C(=O)N2CCC[C@H]2C(=O)N[C@@H](CCCCNC(=O)CN2CCN(CC(=O)O)CCN(CC(=O)O)CCN(CC(=O)O)CC2)C(=O)NCC(N)=O)NC(=O)[C@H](CC(N)=O)NC(=O)[C@H](CCC(N)=O)NC1=O` [DOTA-dLVT] ([Mpa]YIQNCPK(DOTA)G-NH2; disulfide 1-6), on human V1a receptor, the “lower affinity at V1a receptor relative to human OTR” value is ≥ 300 fold and the inhibition constant (Ki) – broadly, a dissociation constant, usually derived from enzyme kinetics or from competition with a known ligand – was 370 ± 58 nM. Moreover, on human V1b receptor, the “lower affinity at V1b receptor relative to human OTR” value is ≥ 300 fold and the Ki is 640 ± 177 nM. Besides, on human V2 receptor, the “decrease in binding affinity at V2 receptor relative to human OTR” value is given as ≥ 300 fold and the Ki was found to be 3560 ± 280 nM. Further, the “enhancement of affinity for the hOTR by addition of DOTA group at position 8 of dLVT” value at human OTR (compared to dLVT (to both OT and dLVT)) is listed as 2–3 fold. Moreover, the Ki on human OTR came to 1.21 ± 0.199 nM. On human OTR fused to EGFP, the “time after application at which punctate fluorescence (endocytotic vesicles) is seen” value came to 5 min; the “receptor internalisation (result in words)” value was “capable of inducing a persistent internalisation; also recorded: rapid and persistent receptor internalisation”.

Consider `CC[C@H](C)[C@@H]1NC(=O)[C@H](Cc2ccc(O)cc2)NC(=O)[C@@H](N)CSSC[C@@H](C(=O)N2CCC[C@H]2C(=O)N[C@@H](CCCCN)C(=O)NCC(N)=O)NC(=O)[C@H](CC(N)=O)NC(=O)[C@H](CCC(N)=O)NC1=O` [LVT, [Lys8]-vasotocin, reference compound] (HELM PEPTIDE1{C.Y.I.Q.N.C.P.K.G.[am]}$PEPTIDE1,PEPTIDE1,1:R3-6:R3$$$V2.0; C-terminus assumed; bridges inferred), for which the “lower affinity at V1a receptor relative to human OTR” value at human V1a receptor came to 10 fold. The “lower affinity at V1b receptor relative to human OTR” value at human V1b receptor turned out to be 10 fold. Besides, the “concentrations at which V2 receptor binds the peptide” value on human V2 receptor (in words) is listed as “only at micromolar concentrations”. The “specific [111In]-DOTA-dLVT binding displaced” value in assay [1] is “more than 92%”. At human OTR fused to EGFP, the “time after application at which punctate fluorescence (endocytotic vesicles) is seen” value is reported as 5 min; the “receptor internalisation (result in words)” value is “rapid and persistent receptor internalisation”.

As for `CC[C@H](C)[C@@H]1NC(=O)[C@H](Cc2ccc(O)cc2)NC(=O)CCSSC[C@@H](C(=O)N2CCC[C@H]2C(=O)N[C@@H](CCCCN)C(=O)NCC(N)=O)NC(=O)[C@H](CC(N)=O)NC(=O)[C@H](CCC(N)=O)NC1=O` [dLVT, reference compound] (HELM PEPTIDE1{[O=C(CCS[*:3])[*:2]].Y.I.Q.N.C.P.K.G.[am]}$PEPTIDE1,PEPTIDE1,1:R3-6:R3$$$V2.0), the inhibitory constant (Ki) was found to be 35.5 ± 6.2 nM on human V1a receptor, 71.7 ± 2 nM at human V1b receptor, 3740 ± 400 nM at human V2 receptor and 3.88 ± 0.585 nM at human OTR.

Turning to oxytocin [OT], the “specific [111In]-DOTA-dLVT binding displaced” value in assay [1] was “more than 92%”.
